In paper PMC3856094, “Identification of Novel Small Molecules as Inhibitors of Hepatitis C Virus by Structure-Based Virtual Screening” (International Journal of Molecular Sciences, 2013):
Several values for one entry are separate records, joined by “and”; a condition that tells them apart may be missing. Equal values may be shown once.

What was measured:
[1] = parameters: method as in SPECS; details: values provided by vendor; ref SPECS; cited from earlier work
[2] = cell cytotoxicity assay (MTT); assay type: cell-based; details: human, 50% cytotoxicity concentration, Huh7 (NS3-5B) cells
Procedure: To determine if the compounds were cytotoxic to Huh7 (NS3-5B) cells, the cells (1 × 10^4 cells per well) were plated on 96-well microtiter plates and were incubated at 37 °C in 5% CO2 overnight. Various concentrations of the compounds were added to the wells. 48 h later, 10 μL of MTT (M2128, Sigma, Shanghai, China) were added to each well and incubated at 37 °C for 4 h. One-hundred microliters of MTT buffer (10% SDS + 5% isobutyl alcohol + 10 mmol/L HCl) were added overnight, and the optical density readings were measured by colorimeter at 580 and 680 nm.

[3] = tested on: HCV replicon, Huh7 (NS3-5B) cells; experiment: cell-based HCV replicon assay (luciferase); parameters: species or system Hepatitis C virus genotype 1b; details: for IC50: genotype 1b, Huh7 (NS3-5B) cells, 48 h incubation, luciferase readout; for SI (selectivity index): ratio of CC50/IC50
Procedure: Huh7 (NS3-5B) cells correspond to a stable cell line transfected with HCV NS3-5B genotype 1b. The cells were seeded (1 × 10^4 cells per well) in Dulbecco’s Modified Eagle Medium (DMEM) supplemented with 10% fetal bovine serum, 2 mM glutamine, penicillin (100 IU/mL)/streptomycin (100 μg/mL), 1× nonessential amino acids and 0.5 mg/mL G418 in 96-well plates overnight. Compounds were diluted and added to each well. Each concentration was measured in duplicate. After 48 h of incubation, 100 μL of Steady-Glo Luciferase buffer (E2550, Promega, Beijing, China) was added to each well and shaken for 10 min, and the results were read on plate reader (ENVISION, PerkinElmer, Shanghai, China). The IC50 values were calculated by fitting with the parameter of the Hill equation.

[4] = biological target: T1, HCV NS3/4A protease (Hepatitis C virus genotype 1b, UniProt O92972); experiment: HCV NS3/4A protease assay (SensoLyte 490 kit); details: inhibition percentage at 50 μM in biochemical protease assay, mean of duplicate wells
T1 construct: HCV NS3/4A protease diluent (10 ng, 10 μL); purchased AnaSpec 71126 (assay kit)
T1 sequence (O92972 1658-1711): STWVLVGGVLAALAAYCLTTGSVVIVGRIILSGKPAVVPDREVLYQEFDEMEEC
T1 sequence (O92972 1027-1657): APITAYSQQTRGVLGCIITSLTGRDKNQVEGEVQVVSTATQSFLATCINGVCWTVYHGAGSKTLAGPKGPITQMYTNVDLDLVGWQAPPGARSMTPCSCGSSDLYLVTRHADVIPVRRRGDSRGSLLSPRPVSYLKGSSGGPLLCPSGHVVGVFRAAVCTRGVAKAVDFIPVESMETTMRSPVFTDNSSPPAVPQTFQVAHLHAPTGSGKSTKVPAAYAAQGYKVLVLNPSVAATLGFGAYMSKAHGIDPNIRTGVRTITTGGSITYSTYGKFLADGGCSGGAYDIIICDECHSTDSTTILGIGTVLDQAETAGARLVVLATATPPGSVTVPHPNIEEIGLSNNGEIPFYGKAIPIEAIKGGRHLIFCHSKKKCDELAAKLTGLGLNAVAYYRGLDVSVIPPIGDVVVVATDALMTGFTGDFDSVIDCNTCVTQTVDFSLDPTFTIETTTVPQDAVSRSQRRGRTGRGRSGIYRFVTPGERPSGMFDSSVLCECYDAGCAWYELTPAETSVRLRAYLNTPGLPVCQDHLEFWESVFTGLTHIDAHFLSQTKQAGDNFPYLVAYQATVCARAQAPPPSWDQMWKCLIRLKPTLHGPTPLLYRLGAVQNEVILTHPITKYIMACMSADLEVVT
Procedure: A SensoLyte® 490 HCV Protease Assay Kit (AnaSpec, Cat#71126) was used for screening HCV protease inhibitors. The test compounds (100 nL of 200× final concentration, prepared by the ECHO liquid handler (ECHO, Labcyte, CA, USA)) and HCV NS3/4A protease diluent (10 ng, 10 μL) were added into a 384-well black microplate (Corning #3573). The known HCV NS3/4A protease inhibitor (Ac-DEDif-EchaC, AnaSpec Cat#25346) was used as a control. The plate was incubated at room temperature for enzymatic reaction for 10 min. In the meantime, the HCV NS3/4A protease substrate solution was also incubated at the same temperature. The reaction was initiated by adding 10 μL of HCV NS3/4A protease substrate. The reagents were completely mixed by shaking the plate gently for 30–60 s. For the kinetic reading, the fluorescence intensity at Ex/Em = 340 nm/490 nm was immediately measured, and the data was recorded every 2 min for 30 min.

[5] = parameters: method as in SPECS; details: values provided by vendor; ref SPECS; cited from earlier work; remark: listed apart in the source

Compound | LogS [1] | CC50 at 48 h [2] | IC50 ([3]; Hepatitis C virus, Huh-7, 48 h) | SI (selectivity index) [3] | inhibition at 50 µM [4] | LogP [5] | IC50 [3]
O=C(NC(C(=O)N/N=C/c1ccc(O)cc1O)c1n[nH]c(=O)c2ccccc12)c1ccccc1 (stereo not shown) [Compound 2] | −3.90 | > 50 µM | 11.2 µM | >4.46 | 77.9% | 1.95 | –
NC(=S)N/N=C/c1cccc(O)c1O [Compound 8] | −1.89 | 1.12 µM | 6.23 µM | 0.18 | – | 1.51 | –
O=C(COC(=O)c1cccc(N2C(=O)C3C4c5ccccc5C(c5ccccc54)C3C2=O)c1)c1ccc(Br)cc1 (stereo not shown) [Compound 16] | −8.04 | > 50 µM | 9.42 µM | >5.31 | – | 4.48 | –
COc1cccc(/C=N/NC(=O)c2cc3ccccc3nc2C)c1O [Compound 5] | −4.05 | > 50 µM | 3 µM | – | – | 3.17 | 3.01 µM
O=C(CSc1nnc(CNc2ccccc2)n1-c1ccc(Cl)cc1Cl)N/N=C/c1c2ccccc2cc2ccccc12 [Compound 6] | – | 14.8 µM | 5.04 µM | 2.94 | 48.1% | 7.08 | –
COc1ccc(-c2cc(C(=O)Nc3ccc(S(=O)(=O)Nc4nccs4)cc3)c3ccccc3n2)c(OC)c1 [Compound 14] | −7.55 | > 50 µM | 20.7 µM | >2.42 | – | 5.1 | –
O=C(N/N=C/c1ccc(O)cc1O)c1[nH]nc2c1CCCC2 [Compound 1] | −3.01 | 0.46 µM | 4.69 µM | 0.10 | 96.7% | 0.27 | –
COc1ccc(/C=N/NC(=O)c2ccc(O)cc2O)cc1O [Compound 4] | −2.48 | > 50 µM | 15.3 µM | >3.27 | 56.9% | 2.2 | –
NC(=S)N/N=C/c1ccc(O)c(O)c1 [Compound 9] | −1.03 | – | – | – | 33.7% | 1.53 | –
C=CCc1cccc(/C=N/c2ccc(OC)cc2)c1O [Compound 11] | −4.16 | > 50 µM | < 10 µM | – | – | 4.43 | 5.1 µM and 5.14 µM
Cc1ccc(O)c(/C=N/NC(=O)C2C(=O)NCC2c2ccccc2)c1 (stereo not shown) [Compound 3] | −3.69 | > 50 µM | 13.4 µM | >3.73 | – | 2.75 | –
Oc1ccc2cc(Br)ccc2c1/C=N/c1nc[nH]n1 [Compound 12] | −2.67 | > 50 µM | 16.1 µM | >3.11 | 53% | 3.23 | –
O=C1c2ccccc2C(=O)N1/N=C/c1cccc(O)c1O [Compound 10] | −2.5 | > 50 µM | 7.07 µM | >7.07 | – | 2.18 | –
CCC(C)c1ccc(-c2cc(C(=O)N/N=C/c3cccnc3)c3ccccc3n2)cc1 (stereo not shown) [Compound 7] | −5.53 | 11.8 µM | 4.14 µM | 2.85 | 64.3% | 5.84 | –
CCCCC(CC)C(=O)Nc1nnc(Cc2ccc(OC)cc2)s1 (stereo not shown) [Compound 15] | −5.64 | > 50 µM | 28.2 µM | >1.77 | 41.8% | 4.57 | –
